SMILES strings stand for the structures.

Consider `Cc1ccc(C(=O)c2c(OCc3ccccc3)cc(C(=O)O)cc2[N+](=O)[O-])cc1`, for which the melting point (usually the temperature, or range, at which the solid turns liquid) was 222 to 223 °C.

`CCOC(=O)CSc1nc2ccc(N)cc2s1` registered a melting point of 87 to 89 °C. The same measure for `O=C1NC2CCC(Cc3ccc(O)cc3)CC2CC1CO` (centres undefined): 126 to 128 °C; for `Cc1nc2c3c(c(CO)cc2n1C)CCC(c1ccccc1)N3` (centres undefined): 253 to 254 °C; for `CC1(C)COc2cc3c(cc21)C1(CO3)CN(Cc2ccccn2)c2ccccc21` (centres undefined): 145 to 147 °C.

`CCCn1c(=O)nc(SC)c2[nH]c(C3CCCC3)nc21` gave a melting point of 258 to 259 °C.

As for `CC(C(=O)O)c1ccc(Oc2ccc(F)cc2)cc1` (centres undefined), the melting point fell in the range of 84 to 86 °C. The same measure for `COc1cc(C(=O)NCCc2ccc(F)cc2)cnc1C(=O)O`: 110 °C. Next, `O=C(CCCl)c1cc2c(s1)CCCC2`: 51 to 53 °C. In the case of `COC(=O)c1nc(-c2ccc(Cl)c(N(C)C)c2F)nc(N)c1C1CC1`, the melting point is 156 to 158 °C. The same measure for `CNC(=O)C(=NOC)c1ccccn1`: 132 to 133 °C; for `CCOC(=O)c1ncc2[nH]c3c([N+](=O)[O-])cc([N+](=O)[O-])cc3c2n1`: 295 to 299 °C; for `COc1ccc(CNC(=O)c2c[nH]c3ccc(N4CCCC4)nc3c2=O)cc1`: 270 to 272 °C. Next, `O=C(O)CCC1CCN(C(=O)CN2CCN(c3ccncc3)CC2)CC1`: 90 to 92 °C. On to `O=C(O)Cn1c(-c2cccc(F)c2)nc2cccnc21`, for which the melting point lay in the range of 243 to 245 °C. Next, `CC(C)c1nccc2c(CNC(=O)C(Cl)Cl)cccc12`: 151 °C; `COc1cc2c(cc1C#Cc1ccc(C(=O)O)cc1)C(C)(C)CCC2(C)C`: 231 to 234 °C. The same measure for `Cc1ccccc1-c1c(NC(=O)Nc2ccc(F)cc2F)c(=O)oc2ccc(C)c(C)c12`: 232 to 234 °C; for `COc1ccc(C(=O)Nc2ccccc2)cc1NC(=S)Nc1cccc([N+](=O)[O-])c1`: 188 to 189 °C; for `C#CCC1CCC(=O)C(C(=O)c2ccc(S(C)(=O)=O)cc2[N+](=O)[O-])C1=O` (centres undefined): 65 to 70 °C. The same measure for `CCc1cccc(CC)c1C(=O)Nc1cccc2c1CCN(C)C2`: 186 to 188 °C; for `COc1ccc(N2C(=O)C(O[Si](C(C)C)(C(C)C)C(C)C)C2c2ccc(F)cc2)cc1` (centres undefined): 121 to 122 °C.

`O=C1C(c2ccccc2)=CC(=O)c2c(O)c(-c3ccccc3)cc(O)c21`: the melting point lay in the range of 170 to 173 °C. The same measure for `CCCN(CCC)C1COc2cccc(C(=O)C(C)C)c2C1` (centres undefined): 60 to 62 °C; for `COC(=O)c1ccc(C(=O)N[C@@H]2CCCC[C@@H]2c2ccc(OC)c(OC)c2)cc1`: 154 to 156 °C; for `O=C(O)c1cc2c(s1)CCc1ccccc1-2`: 205 to 208 °C. The same measure for `O=C(CCCCCCCc1ccccc1)NNC(=O)c1ccc(O)cc1`: 150 to 152 °C; for `Cn1c(=O)cc(-c2cccc(Cl)c2)c2cc(C(=O)c3ccc(I)cc3)ccc21`: 184 °C; for `CC(=O)SCC(C(=O)N[C@@H](Cc1c[nH]c2ccccc12)C(=O)O)C(F)(F)F` (some centres undefined): 140 to 143 °C. For `O=C(Cc1ccccc1C(=O)O)Nc1cccc(/C=C/c2nc(C3CCCCCC3)cs2)c1`, the melting point lay in the range of 189 to 190 °C. As for `Clc1cncc(Cl)c1C1=NC(c2ccc(Br)cc2)CO1` (centres undefined), the melting point is 102 to 103 °C.

In the case of `CC(=O)N1CCC(c2nn(-c3ccc(F)cc3)c3ccccc23)CC1`, the melting point was 99 to 101 °C. The same measure for `CON=C(c1ccccc1)c1ccc2c(c1)C(C)(C)CCN2CCOc1ccc(CC(OC(C)=O)C(=O)O)cc1` (centres undefined): 64 to 66 °C; for `CNC(=O)[C@H](C)C[C@H](O)[C@H](CC1CCCCC1)NC(=O)[C@H](Cc1cscn1)NC(=O)OC(C)(C)C`: 158 to 160 °C.

Compound `COc1cc(OC)c2c(=O)[nH]c(-c3ccc(OC)c(-c4ccc(S(C)(=O)=O)cc4)n3)nc2c1` displayed a melting point of 279 to 281 °C. Consider `CS(=O)(=O)Nc1ccc(CC(=O)O)cc1`, for which the melting point fell in the range of 145 to 147 °C. Compound `COc1cc2ccc(C(=N)NO)cc2cc1OC` yielded a melting point of 203 to 208 °C.

The compound `CC1=C(Br)C=CC(Cl)(C=NO)C1` (centres undefined) displayed a melting point of 77 to 78 °C. Compound `COc1ccc(S(=O)(=O)C2(C(=O)NO)CCN(Cc3ccc(OCCN4CCCCC4)cc3)CC2)cc1` yielded a melting point of 114 °C. The same measure for `CC(Oc1ccc(-c2ccc(Cl)cc2)cc1)(C(=O)O)C(F)(F)F` (centres undefined): 198 to 199 °C; for `c1ccc2cc(OCCc3c[nH]cn3)ccc2c1`: 157 to 158 °C; for `Cc1nc(C(=O)Nc2ccc3[nH]cc(C4CCN(C)CC4)c3n2)c(C)s1`: 125 to 126 °C.

In the case of `Cc1ncc2c(c1-c1nnn[nH]1)COc1ccccc1C2=O`, the melting point was in the range of 180 to 182 °C.

`NC(=O)c1ccc(OC2CCN(Cc3ccccc3)CC2)cc1` gave a melting point of 166 to 168 °C. Next, `Fc1cc(CC2(Cc3ccnc(F)c3)c3cc(I)ccc3-c3ncccc32)ccn1`: 158 to 161 °C. Next, `CC(C)(C)OC(=O)N1CCN(C(c2ccccc2)c2ccccc2)CC1`: 129 to 131 °C; `Clc1ccc(N2CCN(Cc3cn4cc(Br)ccc4n3)CC2)cc1`: 154 to 155 °C; `Cc1cccc(N2CCN(CCCON3C(=O)c4ccccc4C3=O)CC2)c1`: 127 to 128 °C. The same measure for `Cc1cc2oc(S(N)(=O)=O)cc2cn1`: 233 to 234 °C. As to `CC(COc1ccc(CC(=O)O)cc1Cl)NCC(O)c1cccc(Cl)c1` (centres undefined), the melting point was in the range of 188 to 192 °C. The same measure for `Nc1cc(O)c(C(=O)NCC2CN(Cc3ccccc3)CCO2)cc1Cl` (centres undefined): 153 to 155 °C; for `CC1=C(C=O)C(C)(C)c2c(C)c(C)c(C)c(C)c21`: 176 °C; for `O=C1c2ccccc2NC(c2ccc(=O)[nH]c2)N1c1ccc(F)c(C(F)(F)F)c1` (centres undefined): 260 to 261 °C.

The compound `CSc1nc(Br)cc(Br)n1` came in with a melting point of 82 to 84 °C. Next, `C=C1N(c2ccccc2)C(=O)OC12CCNCC2`: 185 to 186 °C; `CCN1CCCC1CNC(=O)c1cc([N+](=O)[O-])c(Cl)cc1OC` (centres undefined): 107 to 108 °C; `CCC(CC)Sc1cc2c(cc1Cl)N=C(C(N)=O)NS2(=O)=O`: 287 to 289 °C. Next, `COC(=O)N[C@@H](Cc1ccccc1)C(=O)CCl`: 121 to 122 °C. Next, `COC(=O)C1(CCCCCCCCCCCCC2(C(=O)NC3CC3)CC2)CC1`: 50.6 to 53 °C; `CC(=O)NC(C(=O)NCc1ccccc1)c1ncc[nH]1` (centres undefined): 228 to 230 °C; `O=C(O)C(=O)c1ccc(O)c([N+](=O)[O-])c1`: 139 to 140 °C. `Cc1cnc(-n2cc(C(F)(F)F)cn2)nc1Oc1cccc(C(F)(F)F)c1` returned a melting point of 103 to 105 °C. Next, `N#Cc1ccc(CC23CCCN2C(=O)N(c2cc(Cl)cc(-n4cccc4)c2)C3=O)cc1` (centres undefined): 266 °C; `O=C(c1cccnc1)c1cc(-c2ccncc2)c(N2CCOCC2)s1`: 124 °C.

The record behind these values is a melting point compilation (Tetko et al.; mined from patent text by program, amines drawn as free bases though some values may be those of a salt).
